Measured values: publication PMC6934184, “Selective DNA-PKcs inhibition extends the therapeutic index of localized radiotherapy and chemotherapy” (The Journal of Clinical Investigation, 2019)

Key:
[1] = tested on: A549 cells; experiment: γH2AX and 53BP1 foci after 10 Gy; type: cell-based, human; details: 5 μM, 5 hours after irradiation
Procedure: (§1) Cell line γH2AX and 53BP1 foci immunofluorescence and quantitation
(§2) Cells grown on coverslips or in 96-well plates were treated with 1 or 5 µM NU5455 or DMSO 1 hour prior to irradiation (0, 2.5 or 10 Gy) using an RS 320 X-ray Research System (Gulmay Medical). At set timepoints (15 or 30 minutes, or 1, 4, 5, 6, or 24 hours post-irradiation), cells were washed and fixed in methanol or 3% paraformaldehyde (PFA). Cells were blocked and permeabilized in 1% (v/v) goat serum/1% (w/v) BSA/0.1% (v/v) Triton X100 or 0.1% (v/v) Triton X100 containing 10% (w/v) dried milk powder and 2% (w/v) bovine serum albumin, followed by incubation with antibodies against γH2AX (JBW301, Millipore #05-636) and/or 53BP1 (Cell Signaling #4937). Cells were then washed and incubated with Alexa Fluor 488 goat anti-mouse and/or Alexa Fluor 568 goat anti -rabbit antibodies (A11001 or A11011 respectively, Invitrogen). In A549 and Calu-6, cells were Hoechst stained (5 µg/ml), and the average numbers of γH2AX and 53BP1 foci per cell were quantified from 400 nuclei per sample using an In Cell analyzer 1000 (GE Healthcare). For MCF7 cells, coverslips were mounted using Vectashield mounting medium with DAPI (Vector Labs) and imaged using a Leica TCS SPE confocal fluorescence microscope. Total fluorescence intensity was determined using ImagePro Plus 5.0 software (Media Cybernetics).
(§3) Clonogenic survival assays […]

[2] = tested on: Calu-6 cells; experiment: γH2AX and 53BP1 foci after 10 Gy; type: cell-based, human; details: 5 μM, 5 hours after irradiation
Procedure: as §1, §2, §3

[3] = tested on: HCT116 parental cells; experiment: caspase activity after irradiation; type: cell-based, Human; details: 1 µM, 1 hour prior to 2 Gy; 72 hours
Procedure: (§4) Supplemental Figure 19. […] Fold […]
(§5) caspase activity in HCT116 parental and p53 null (-/-) cells 72 hours following pre-treatment with NU5455 (1 µM) or DMSO for 1 hour prior to irradiation (0 or 2 Gy). Fold caspase activity was normalized to cell density determined by SRB staining. Data represent the mean ± SEM from three independent experiments. NS = not significant, **** P < 0.0001 (2-way ANOVA).

[4] = tested on: HCT116 p53 null (-/-) cells; experiment: caspase activity after irradiation; type: cell-based, Human; details: 1 µM, 1 hour prior to 2 Gy; 72 hours
Procedure: as §4, §5

[5] = tested on: MCF7 cells; experiment: clonogenic survival with 2 Gy IR, DNA repair inhibitors; type: cell-based, Human; details: 1 h before and 24 h after IR
Procedure: Cells were washed in phosphate-buffered saline (PBS), trypsinized and counted. Cells were then reseeded at a known density in drug-free medium into 10 cm dishes (100 - 10 000 cells/dish) and incubated for 8-21 days. Colonies were fixed using Carnoys fixture (75% v/v methanol, 25% v/v acetic acid, Fisher), stained with crystal violet (0.4% w/v in water), and counted using a ColCount automated colony counter (Oxford Optronics). Cell survival was calculated as a percentage of the untreated control.
Alternatively, exponentially growing MCF7 cells were exposed to a range of concentrations of the PARP inhibitor rucaparib, the ATM inhibitor KU55933, the ATR inhibitor VE-821 or NU5455 for 1 hour prior to irradiation with 2 Gy. Cells were then incubated in the continued presence of the DNA repair inhibitors for a further 24 hours prior to replating. […]

For `CN(C(=O)CN1CCOCC1)c1ccc2sc3c(-c4cccc5c(=O)cc(N6CC7CCC(C6)O7)oc45)cccc3c2c1` [NU5455], the “number of colocalized γH2AX and 53BP1 foci” value [1] was “significant increase”, the “number of colocalized γH2AX and 53BP1 foci” value [2] was “significant increase” and the “radiation-induced apoptosis (fold caspase activity)” value [3] was “increases radiation-induced apoptosis”. The “radiation-induced apoptosis (fold caspase activity)” value [4] was “increases radiation-induced apoptosis”, the “SER (sensitization enhancement ratio), enhancement of 2 Gy IR clonogenic cell killing” value ([5]; at 1 μM) was 11.5 fold and the “SER (sensitization enhancement ratio), enhancement of 2 Gy IR clonogenic cell killing” value ([5]; at 3 μM) was 38 fold.
